pIC50: −log10 of the molar value.
Target: Cannabinoid receptor 1 (Homo sapiens, UniProt P21554)
Format: functional

Chain of Cannabinoid receptor 1 (P21554 whole entry): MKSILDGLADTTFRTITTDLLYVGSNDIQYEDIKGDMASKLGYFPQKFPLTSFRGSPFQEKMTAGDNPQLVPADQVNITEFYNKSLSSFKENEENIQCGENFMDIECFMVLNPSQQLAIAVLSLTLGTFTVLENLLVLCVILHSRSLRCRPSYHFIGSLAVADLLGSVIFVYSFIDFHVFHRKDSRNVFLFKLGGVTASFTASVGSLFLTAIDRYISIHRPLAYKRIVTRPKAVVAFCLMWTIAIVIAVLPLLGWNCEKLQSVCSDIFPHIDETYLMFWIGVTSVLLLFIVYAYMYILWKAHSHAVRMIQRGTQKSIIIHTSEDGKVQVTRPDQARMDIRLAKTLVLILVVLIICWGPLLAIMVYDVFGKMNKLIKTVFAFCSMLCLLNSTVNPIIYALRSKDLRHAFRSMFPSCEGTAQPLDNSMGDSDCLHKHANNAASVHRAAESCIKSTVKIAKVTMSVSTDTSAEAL

pIC50 | SMILES
7.68 | CC(NS(=O)(=O)Cc1ccccc1)C(Cc1ccc(Cl)cc1)c1cccc(C#N)c1 (stereo not drawn)
5.77 | CC(NS(=O)(=O)C(C)(C)C)C(Cc1ccc(Cl)cc1)c1cccc(C#N)c1 (stereo not drawn)
8.82 | CC(NC(=O)C(C)(C)Oc1cccc(Cl)c1)C(Cc1ccc(Cl)cc1)c1ccccc1 (stereo not drawn)
5.69 | CC(NS(C)(=O)=O)C(Cc1ccc(Cl)cc1)c1cccc(C#N)c1 (stereo not drawn)

Second part, the compound before the results:

SMILES | pIC50
CC(NC(=O)C(C)(C)Oc1ccc(Cl)cn1)C(Cc1ccc(Cl)cc1)c1ccccc1 (stereo not drawn) | 8.88
CC(=O)Nc1cc(=O)n(C)c2nc(-c3ccc(Cl)cc3Cl)c(-c3ccc(Cl)cc3)cc12 | 6.95
Cc1ccccc1C(c1ccc(Cl)cc1)N1CCN(C(=O)NC(C)C)CC1 (stereo not drawn) | 5.66
CC(C)NC(=O)N1CCN(C(c2ccc(Cl)cc2)c2ccccc2C(F)(F)F)CC1 (stereo not drawn) | 5.18
O=C(NCC1CCC1)N1CCN(C(c2ccc(Cl)cc2)c2ccc(Cl)cc2)CC1 | 5.46
CC(C)NC(=O)N1CCN(C(c2ccc(Cl)cc2)c2ccccc2Cl)CC1 (stereo not drawn) | 6.40
CC(NC(=O)C(C)(C)Oc1cc(F)cc(F)c1)C(Cc1ccc(Cl)cc1)c1ccccc1 (stereo not drawn) | 8.95
CC(=O)Nc1c(C#N)c(=O)n(C)c2nc(-c3ccc(Cl)cc3Cl)c(-c3ccc(Cl)cc3)cc12 | 7.45
CC(C)NC(=O)N1CCN(C(c2ccc(Br)cc2)c2ccccc2Cl)CC1 (stereo not drawn) | 6.11
